According to the supplement of paper PMC8612539:

How the values were obtained:
[1] = system: Mannheimia haemolytica; assay: minimum inhibitory concentration (MIC)
Procedure: (§1)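 Broth microdilution MIC (Sensititre BOPO7F bovine plate, CLSI methods) of 19 antimicrobials against field isolates of P. multocida, M. haemolytica, H. somni (deep nasopharyngeal swabs) and E. coli, Enterococcus spp. (rectal swabs) from weaned dairy heifers. Incubation 16-24 h at 35 C. MIC is the lowest concentration preventing visible growth. Values with <= or > lie at the tested range limits. Trimethoprim-sulfamethoxazole is given as the trimethoprim component of a 1:19 mixture.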

[2] = system: Enterococcus spp.; assay: minimum inhibitory concentration (MIC)
Procedure: as §1

COc1cc(Cc2cnc(N)nc2N)cc(OC)c1OC.Cc1cc(NS(=O)(=O)c2ccc(N)cc2)no1 [trimethoprim-sulfamethoxazole]
minimum inhibitory concentration [µg/mL]
Details	[1]	[2]
isolate (source animal id): 2	–	≤ 2
isolate (source animal id): 3	≤ 2	–
isolate (source animal id): 8	≤ 2	–
isolate (source animal id): 13	≤ 2	–
isolate (source animal id): 18	≤ 2	–
isolate (source animal id): 21	≤ 2	–
isolate (source animal id): 25	≤ 2	–
isolate (source animal id): 27	≤ 2	–
isolate (source animal id): 28	≤ 2	–
isolate (source animal id): 30	≤ 2	–
isolate (source animal id): 31	≤ 2	–
isolate (source animal id): 32	≤ 2	–
isolate (source animal id): 34	≤ 2	–
isolate (source animal id): 35	–	> 2
isolate (source animal id): 36	≤ 2	–
isolate (source animal id): 37	≤ 2	–
isolate (source animal id): 40	≤ 2	–
isolate (source animal id): 41	≤ 2	–
isolate (source animal id): 42	–	≤ 2
isolate (source animal id): 43	≤ 2	–
isolate (source animal id): 44	–	> 2
isolate (source animal id): 46	≤ 2	–
isolate (source animal id): 49	≤ 2	–
isolate (source animal id): 50	≤ 2	–
isolate (source animal id): 51	≤ 2	–
isolate (source animal id): 52	≤ 2	–
isolate (source animal id): 53	≤ 2	–
isolate (source animal id): 55	≤ 2	–
isolate (source animal id): 56	≤ 2	–
isolate (source animal id): 57	≤ 2	–
isolate (source animal id): 60	> 2	–
isolate (source animal id): 61	≤ 2	–
isolate (source animal id): 64	≤ 2	–
isolate (source animal id): 65	≤ 2	–
isolate (source animal id): 66	> 2	–
isolate (source animal id): 67	≤ 2	–
isolate (source animal id): 68	≤ 2	–
isolate (source animal id): 70	≤ 2	–
isolate (source animal id): 72	≤ 2	–
isolate (source animal id): 74	≤ 2	–
isolate (source animal id): 76	≤ 2	–
isolate (source animal id): 79	–	≤ 2
isolate (source animal id): 80	≤ 2	–
isolate (source animal id): 82	≤ 2	–
isolate (source animal id): 83	≤ 2	–
isolate (source animal id): 84	≤ 2	–
isolate (source animal id): 85	≤ 2	–
isolate (source animal id): 86	≤ 2	–
isolate (source animal id): 87	> 2	–
isolate (source animal id): 88	–	≤ 2
isolate (source animal id): 91	–	≤ 2
isolate (source animal id): 92	–	≤ 2
isolate (source animal id): 100	> 2	–
isolate (source animal id): 103	≤ 2	–
isolate (source animal id): 107	≤ 2	–
isolate (source animal id): 108	≤ 2	–
isolate (source animal id): 111	–	≤ 2
isolate (source animal id): 112	≤ 2	–
isolate (source animal id): 113	≤ 2	–
isolate (source animal id): 121	≤ 2	–
isolate (source animal id): 122	≤ 2	> 2
isolate (source animal id): 123	≤ 2	≤ 2
isolate (source animal id): 126	≤ 2	–
isolate (source animal id): 133	≤ 2	≤ 2
isolate (source animal id): 135	≤ 2	–
isolate (source animal id): 138	≤ 2	–
isolate (source animal id): 141	≤ 2	–
isolate (source animal id): 142	≤ 2	–
isolate (source animal id): 145	≤ 2	–
isolate (source animal id): 149	≤ 2	–
isolate (source animal id): 151	≤ 2	–
isolate (source animal id): 152	≤ 2	–
isolate (source animal id): 154	≤ 2	–
isolate (source animal id): 158	–	> 2
isolate (source animal id): 159	≤ 2	–
isolate (source animal id): 162	≤ 2	–
isolate (source animal id): 168	–	≤ 2
isolate (source animal id): 169	–	≤ 2
isolate (source animal id): 170	≤ 2	–
isolate (source animal id): 171	≤ 2	≤ 2
isolate (source animal id): 172	≤ 2	–
isolate (source animal id): 173	≤ 2	–
isolate (source animal id): 175	–	≤ 2
isolate (source animal id): 177	–	≤ 2
isolate (source animal id): 179	≤ 2	–
isolate (source animal id): 180	≤ 2	–
isolate (source animal id): 181	–	≤ 2
isolate (source animal id): 182	–	≤ 2
isolate (source animal id): 183	≤ 2	≤ 2
isolate (source animal id): 186	≤ 2	–
isolate (source animal id): 187	≤ 2	≤ 2
isolate (source animal id): 188	≤ 2	–
isolate (source animal id): 190	≤ 2	≤ 2
isolate (source animal id): 191	≤ 2	–
isolate (source animal id): 192	≤ 2	–
isolate (source animal id): 194	–	≤ 2
isolate (source animal id): 195	–	≤ 2
isolate (source animal id): 197	–	≤ 2
isolate (source animal id): 201	≤ 2	–
isolate (source animal id): 202	≤ 2	–
isolate (source animal id): 209	≤ 2	–
isolate (source animal id): 211	≤ 2	≤ 2
isolate (source animal id): 214	–	> 2
isolate (source animal id): 220	≤ 2	–
isolate (source animal id): 221	≤ 2	–
isolate (source animal id): 222	–	≤ 2
isolate (source animal id): 223	≤ 2	≤ 2
isolate (source animal id): 228	–	≤ 2
isolate (source animal id): 230	–	≤ 2
isolate (source animal id): 233	≤ 2	–
isolate (source animal id): 235	–	≤ 2
isolate (source animal id): 236	–	≤ 2
isolate (source animal id): 237	≤ 2	–
isolate (source animal id): 239	–	≤ 2
isolate (source animal id): 241	≤ 2	≤ 2
isolate (source animal id): 244	–	≤ 2
isolate (source animal id): 246	–	≤ 2
isolate (source animal id): 247	–	≤ 2
isolate (source animal id): 250	–	≤ 2
isolate (source animal id): 252	≤ 2	> 2
isolate (source animal id): 253	≤ 2	–
isolate (source animal id): 259	≤ 2	–
isolate (source animal id): 260	≤ 2	–
isolate (source animal id): 262	≤ 2	–
isolate (source animal id): 268	–	≤ 2
isolate (source animal id): 282	≤ 2	≤ 2
isolate (source animal id): 285	–	> 2
isolate (source animal id): 287	≤ 2	–
isolate (source animal id): 288	≤ 2	–
isolate (source animal id): 289	–	≤ 2
isolate (source animal id): 290	–	≤ 2
isolate (source animal id): 291	≤ 2	–
isolate (source animal id): 293	≤ 2	–
isolate (source animal id): 296	–	≤ 2
isolate (source animal id): 298	≤ 2	≤ 2
isolate (source animal id): 299	≤ 2	–
isolate (source animal id): 300	≤ 2	–
isolate (source animal id): 301	–	≤ 2
isolate (source animal id): 302	≤ 2	–
isolate (source animal id): 304	≤ 2	–
isolate (source animal id): 306	≤ 2	–
isolate (source animal id): 308	≤ 2	–
isolate (source animal id): 309	≤ 2	–
isolate (source animal id): 310	–	> 2
isolate (source animal id): 313	≤ 2	–
isolate (source animal id): 318	≤ 2	–
isolate (source animal id): 320	≤ 2	≤ 2
isolate (source animal id): 321	≤ 2	–
isolate (source animal id): 323	≤ 2	–
isolate (source animal id): 324	≤ 2	–
isolate (source animal id): 326	≤ 2	–
isolate (source animal id): 328	≤ 2	–
isolate (source animal id): 329	≤ 2	–
isolate (source animal id): 331	–	≤ 2
isolate (source animal id): 333	≤ 2	≤ 2
isolate (source animal id): 335	≤ 2	–
isolate (source animal id): 338	≤ 2	–
isolate (source animal id): 341	–	> 2
